From patent US8268849B2, “Multifunctional Antioxidants and methods of use thereof” (priority 2007, dated 2012)

Key:
[1] = system: lens opacities after whole head irradiation; assay type: in vivo; conditions: for appearance of lens opacities / delay of lens PSC opacities / delay of the average (50% in all animals) formation of PSC punctuate opacities: 15 Gy whole head irradiation; for delay of lens PSC opacities / delay of the average (50% in all animals) formation of PSC punctuate opacities: compared to untreated rats, JHX 0.025 wt % in chow, Pantethine 1 g/kg i.p.; for toxic effects: irradiated rats
Description: Cataracts were induced by whole head gamma irradiation in 24 male Long Evans (150-200 g) rats. […] Because of the amount of drug required for this long-term study, the percentage of JHX-4 and JHX-8 utilized was ½ of the dose used in the diabetic study. […] Gamma radiation (6000 Curie Cobalt-60 Source, UNMC Experimental Radiation Facility) was delivered to the whole head of unanesthetized, restrained rats at a dose rate of dose 0.341 Gy/minute for a total dose of 15 Gy. Lens changes were monitored every 7 days by portable slit lamp and recorded on a scale from 0-6 with 0: Clear, 1: Posterior subcapsular haze, 2: Spokes, suture enhancement and powdery posterior subcapsular deposits, 3: Prominent posterior subcapsular punctate opacities with spokes and suture enhancement, 4: Posterior subcapsular opacity blocks appearance of retinal vessels, 5: Start cortical involvement, 6: Total lens opacity, visible with naked eye. Since whole head irradiation results in a temporary loss of salivary gland function, all rats received Nutra-Gel (Bio-Serv) with/without JHX-4 or -8 for the first 66 days. Subsequently, all rats received standard rat chow with/without JHX-4 or -8.

[2] = Chelation study by ESI-MS, Fe^2+ solution; assay type: binding; conditions: 10:1 metal:compound, 45 minutes of mixing
Protocol: (§1) The relative amount of ions bound by JHX-1-JHX-8 was determined by electrospray ionization mass spectrometry (ESI-MS) according to the method of Baron and Hering (Baron and Hering (1998) Spectrometry J. Environ. Qual., 27:844-850). In this method solutions containing Fe^2+, Fe^3+, Cu^1+, Cu^2+, Zn^2+, Ca^2+, Mg^2+ were mixed with compound in ratios of 10:1, 1:1, and 1:10. After 45 minutes of mixing, each solution was directly infused into the MS with constant ionization energy and the relative decreases of the parent peaks in these solutions were determined. […] FIG. 3 illustrates ion binding with increased Fe^+2 concentrations results in decreased compound parent peak heights by ESI-MS when compounds contain appropriate functional groups for metal ion chelation.

[3] = Chow consumption, body weight and salivary gland protection after whole head irradiation; assay type: in vivo, Long Evans rats; conditions: for body weight after irradiation: 15 Gy whole head irradiation; for protection of the salivary gland: after whole head irradiation
Description: Cataracts were induced by whole head gamma irradiation in 24 male Long Evans (150-200 g) rats. […] Because of the amount of drug required for this long-term study, the percentage of JHX-4 and JHX-8 utilized was ½ of the dose used in the diabetic study. […] Lens changes were monitored every 7 days by portable slit lamp and recorded on a scale from 0-6 with 0: Clear, 1: Posterior subcapsular haze, 2: Spokes, suture enhancement and powdery posterior subcapsular deposits, 3: Prominent posterior subcapsular punctate opacities with spokes and suture enhancement, 4: Posterior subcapsular opacity blocks appearance of retinal vessels, 5: Start cortical involvement, 6: Total lens opacity, visible with naked eye. […] Subsequently, all rats received standard rat chow with/without JHX-4 or -8.

[4] = system: SRA-1 human lens epithelial cells; assay: ROS staining (H2DCF-DA) in lens epithelial cells; assay type: cell-based; conditions: 24 hour incubation, H2DCF-DA stain; for ROS staining, ROS generated by Fenton reaction: 0.1 mM Fe^2+ and 0.1 mM hydrogen peroxide; for ROS staining, ROS initiated by homocysteine: 10 mM homocysteine (ER stress)
Protocol: The SRA-1 human lens epithelium cell line (Ibaraki et al. (1998) Exp. Eye Res., 67:577-85) was used to evaluate the antioxidant activity of JHX-1-8. These cells were cultured in DMEM media containing 10% fetal bovine serum (FBS), glutamine, NaHCO3, penicillin, and streptomycin at 37° C. in humidified atmosphere of 5% CO2 and 95% air until subconfluent (2-4 days). The cells were passaged when 80-90% confluent by treatment with trypsin-EDTA. The cells were plated at a density of 1×10^4 cells onto 96-well plates or 1×10^6 cells onto 100-mm dishes. ROS levels/effects in cells treated with JHX-1-8 were compared to similar cells treated with the water soluble Vitamin E derivative, Trolox (antioxidant control) or no drug (control).
The compounds were initially screened for antioxidant activity in 24 hour cultured SRA-1 human lens epithelial cells. Reactive oxygen species (ROS) in these cells were generated through both the Fenton reaction in which 0.1 mM Fe^2+ and 0.1 mM hydrogen peroxide were added to the culture media, or by culturing the lens with 10 mM homocysteine which induces endoplasmic reticular (ER) stress that results in the unfolded protein response (UPR) that subsequently generates the ROS. ROS were visualized with 2′,7′-dichlorodihydrofluorescein diacetate (DCF) staining. More specifically, after 24 hours of incubation, all cells were washed 2× with PBS and then incubated at room temperature for 1 hour with 10 μM H2DCF-DA (Invitrogen) stain. Fluorescent ROS staining was analyzed by quantifying pixel intensities of images obtained by fluorescent microscopy. As illustrated below in FIGS. 4A and 4B, compounds with chelating groups only produced a dose-dependent reduction in Fenton Reaction generated ROS. […] Indeed, homocysteine activates ER stress which subsequently initiates ROS through an Unfolded Protein Response (UPR).

[5] = Chelation studies by ESI-MS, overall statement on ion binding; conditions: binding order Cu^1+=Cu^2+>Fe^2+=Fe^3+>Zn^2+; no binding with Ca^2+ or Mg^2+
Protocol: as §1

[6] = system: diabetic cataract formation; assay: Cataract formation in diabetic rats; assay type: in vivo; conditions: for blood sugar / toxic effects: diabetic rats; for delay of vacuole formation / delay of cortical cataracts / lens sorbitol levels: streptozotocin diabetic rats; for delay of vacuole formation / delay of cortical cataracts: 0.025% in chow; for delay of vacuole formation: versus untreated diabetic group (14 days); for delay of cortical cataracts: versus untreated diabetic group (29 days); for lens sorbitol levels: end of study (47 days)
Protocol: Diabetes was induced in 100 g Sprague Dawley rats with streptozotocin injection (75 mg/kg) and all rats with blood sugar levels >300 mg/dL were divided into 4 groups of 8 rats each. One group received only standard rat chow (untreated diabetic) while each of the other groups received chow containing either 0.0125% ARI Al1576, 0.025% JHX-4 or 0.025% JHX-8. Lens changes were monitored by at 3-5 day intervals by slit lamp following tropicamide mydriasis. As summarized in FIGS. 8A-8C, vacuole formation began by 14 days in the untreated diabetic group with cortical opacities observed by 29 days and mature cataracts by 44 days. […] In the two antioxidant treated groups, vacuole formation was delayed by 19 and 11 days by JHX-4 and JHX-8, respectively, and cortical cataracts by 9 and 3 days, respectively. At the end of the study (47 days) all rats were equally diabetic with HbA1C levels >11.9%. All eyes were enucleated and lens sorbitol levels were measured as previously described (Kador et al. (2007) J. Ocul. Pharmacol. Ther., 23:116-23). […] Tissue levels of JHX-4 and -8 in the lens, neural retina and brain were determined after 47 days of feeding as described above (FIG. 10). […] Overall drug levels in both the lens and retina were ca. 3-fold higher in the diabetic rats with brain levels also now present. This increase may be due to either an accumulation of drug, or increased permeability of tissues and the BBB to drug in streptozotocin diabetic rats (Mooradian et al. (2005) Diabetes, 54:2977-82).

| SMILES | appearance of lens opacities [1] | delay of lens PSC opacities [1] | delay of the average (50% in all animals) formation of PSC punctuate opacities [1] | toxic effects [1] | % Parent Peak Remaining at 10:1 Solution of Metal:Compound [2] | body weight after irradiation [3] | protection of the salivary gland [3] | ROS staining, ROS generated by Fenton reaction [4] | ROS staining, ROS initiated by homocysteine [4] | ion binding [5] | blood sugar [6] | toxic effects [6] | delay of vacuole formation [6] | delay of cortical cataracts [6] | lens sorbitol levels [6] |
| --- | --- | --- | --- | --- | --- | --- | --- | --- | --- | --- | --- | --- | --- | --- | --- |
| CN(C)S(=O)(=O)N1C(=O)CN(c2ncc(O)cn2)CC1=O [JHX-4, 1-N,N′-dimethylsulfamoyl-4-(5-hydroxy-2-pyrimidyl)piperazine-2,6-dione] | delayed | 38 days | 53 days | No apparent toxic effects | 6.9% | reducing post-irradiation weight loss | provided systemic protection | protected against ROS | reduced ROS staining similar to that with Trolox | bind ions | did not alter | No apparent toxic effects | 19 days | 9 days | did not alter |
| COc1nc(N2CC(=O)N(S(=O)(=O)N(C)C)C(=O)C2)nc(OC)c1O [JHX-8, 1-N,N′-dimethylsulfamoyl-4-(4,6-dimethoxy-5-hydroxy-2-pyrimidyl)piperazine-2,6-dione] | delayed | 47 days | 58 days | No apparent toxic effects | 7.5% | reducing post-irradiation weight loss | provided systemic protection | protected against ROS | reduced ROS staining similar to that with Trolox | bind ions | did not alter | No apparent toxic effects | 11 days | 3 days | did not alter |
